This is an account of results in patent US20260109707A1, “HETEROBIFUNCTIONAL COMPOUNDS AND METHODS OF TREATING DISEASE” (Halda Therapeutics OpCo. Inc., priority 2022, published 2026).

In test [1] the test system is T-Rex 293 cell line SC3 cells having increased expression of androgen receptor protein due to exposure to doxycycline. The test is described as follows: Cellular growth inhibition assay, T-Rex 293 SC3 cells with doxycycline (CellTiter-Glo, 72 hours). The format is cell-based. As to conditions: 72 h, T-Rex 293 SC3 cells with increased androgen receptor expression due to doxycycline (10 ng/mL). In short, it runs like this: (§1)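 Growth inhibition is measured in an inducible AR-expressing T-Rex 293 clone, SC3, cultured with or without 10 ng/mL doxycycline in hormone-depleted medium. Test compounds are applied for 72 hours. GI50 values derive from CellTiter-Glo 2.0 signal fitted by four-parameter regression.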

Test [2] concerns T-Rex 293 cell line SC3 cells lacking increased expression of androgen receptor protein. Put plainly: Cellular growth inhibition assay, T-Rex 293 SC3 cells without doxycycline (CellTiter-Glo, 72 hours). The format is cell-based. Particulars: 72 h, T-Rex 293 cell line SC3 cells not exposed to doxycycline (lacking increased androgen receptor expression). In outline:
as §1

In a further test the test system is VCaP cells. Put plainly: Cellular growth inhibition assay for VCaP cells (CellTiter-Glo, 72 hours). It counts as cell-based, human. As to conditions: Homo sapiens, VCaP, 72 h. In short, it runs like this:
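Luminescent viability signal after 72 h of compound exposure gave GI50 values by four-parameter nonlinear regression. Compounds were added in 0.5% DMSO to cells plated 24 h earlier at 5000/well in DMEM containing 10% FBS.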

For another test, the system named is T47D cells. Put plainly: Cellular growth inhibition assay for T47D cells (CellTiter-Glo, 72 hours). It counts as cell-based, human. As to conditions: Homo sapiens, T47D, 72 h, 72 hours treatment. In outline: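 Growth inhibition as GI50, fitted with four parameters to CellTiter-Glo luminescence after 72 h of compound exposure (0.5% DMSO). Cells were T47D, grown in insulin-supplemented (0.2 units/mL) DMEM with 10% FBS and treated one day post-seeding.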

SMILES strings stand for the structures.

The GI50 is the concentration giving 50% growth inhibition.

Take `Cc1sc2c(c1C)C(c1ccc(C#C[C@H]3C[C@@]4(CCCN(c5ccc(C(=O)N[C@H]6CC[C@H](Oc7ccc(C#N)c(Cl)c7)CC6)nn5)C4)C3)cc1)=N[C@@H](C)c1nnc(C)n1-2` [I-336]: the GI50 (in test [1]; in test [2]; in the test with VCaP cells; in the test on T47D cells) was < 500 nM throughout.
For `Cc1sc2c(c1C)C(c1ccc(C#C[C@H]3C[C@]4(CCCN(c5ccc(C(=O)N[C@H]6CC[C@H](Oc7ccc(C#N)c(Cl)c7)CC6)nn5)C4)C3)cc1)=N[C@@H](C)c1nnc(C)n1-2` [I-337], the concentration for 50% growth inhibition (GI50) is < 500 nM in test [1], 500 to 1500 nM in test [2], < 500 nM with VCaP cells and 500 to 1500 nM in the test on T47D cells.
In the case of `Cc1sc2c(c1C)C(c1ccc(CC3CC4(CCCN(c5ccc(C(=O)N[C@H]6CC[C@H](Oc7ccc(C#N)c(Cl)c7)CC6)nn5)C4)C3)cc1)=N[C@@H](C)c1nnc(C)n1-2` (stereo partly shown) [I-338], the GI50 in test [1] is < 500 nM; in test [2] it was > 3000 nM; in the test with VCaP cells, < 500 nM; with T47D cells, 500 to 1500 nM.
Take `Cc1sc2c(c1C)C(c1ccc(OC[C@H]3C[C@]4(CCCN(c5ccc(C(=O)N[C@H]6CC[C@H](Oc7ccc(C#N)c(Cl)c7)CC6)nn5)C4)C3)cn1)=N[C@@H](Cc1ncco1)c1nnc(C)n1-2` [I-339]: the GI50 (in test [1]; in test [2]; with VCaP cells; in the test with T47D cells) was < 500 nM in each case.
`Cc1sc2c(c1C)C(c1ccc(OC[C@H]3C[C@@]4(CCCN(c5ccc(C(=O)N[C@H]6CC[C@H](Oc7ccc(C#N)c(Cl)c7)CC6)nn5)C4)C3)cn1)=N[C@@H](Cc1ncco1)c1nnc(C)n1-2` [I-340]: the GI50 (in test [1]; in test [2]; in the test on VCaP cells; with T47D cells) was < 500 nM throughout.
With `Cc1sc2c(c1C)C(c1ccc([C@@H]3CCN(C(=O)[C@@H]4CCCN(c5ccc(C(=O)N[C@H]6CC[C@H](Oc7ccc(C#N)c(Cl)c7)CC6)nn5)C4)C3)cc1)=N[C@@H](Cc1ncco1)c1nnc(C)n1-2` [I-341], the GI50 (in test [1]; in test [2]; with VCaP cells; with T47D cells) was > 3000 nM in each case.
Consider `Cc1sc2c(c1C)C(c1ccc([C@H]3CCN(C(=O)[C@@H]4CCCN(c5ccc(C(=O)N[C@H]6CC[C@H](Oc7ccc(C#N)c(Cl)c7)CC6)nn5)C4)C3)cc1)=N[C@@H](Cc1ncco1)c1nnc(C)n1-2` [I-342], for which the GI50 (in test [1]; in test [2]; with VCaP cells; in the test on T47D cells) was < 500 nM throughout.
On to `Cc1sc2c(c1C)C(c1ccc(CN3CC(=O)N4C[C@H](c5ccc(C(=O)N[C@H]6CC[C@H](Oc7ccc(C#N)c(Cl)c7)CC6)nn5)C[C@H]4C3=O)cc1)=N[C@@H](Cc1ncco1)c1nnc(C)n1-2` [I-343], for which the 50% growth inhibitory concentration (GI50) in test [1] is < 500 nM; in test [2], > 3000 nM; in the test with VCaP cells it was 1500 to 3000 nM; in the test with T47D cells, > 3000 nM.
As to `Cc1sc2c(c1C)C(c1ccc([C@@H]3CCN(C(=O)[C@H]4CCCN(c5ccc(C(=O)N[C@H]6CC[C@H](Oc7ccc(C#N)c(Cl)c7)CC6)nn5)C4)C3)cc1)=N[C@@H](Cc1ncco1)c1nnc(C)n1-2` [I-344], the 50% growth inhibitory concentration (GI50) (in test [1]; in test [2]; in the test on VCaP cells; with T47D cells) was > 3000 nM throughout.
On to `Cc1sc2c(c1C)C(c1ccc([C@H]3CCN(C(=O)[C@H]4CCCN(c5ccc(C(=O)N[C@H]6CC[C@H](Oc7ccc(C#N)c(Cl)c7)CC6)nn5)C4)C3)cc1)=N[C@@H](Cc1ncco1)c1nnc(C)n1-2` [I-345], for which the GI50 in test [1] was < 500 nM; in test [2], > 3000 nM; in the test on VCaP cells it was < 500 nM; in the test with T47D cells, 500 to 1500 nM.
`Cc1sc2c(c1C)C(c1ccc(CN3CC(=O)N4C[C@@H](c5ccc(C(=O)N[C@H]6CC[C@H](Oc7ccc(C#N)c(Cl)c7)CC6)nn5)C[C@H]4C3=O)cc1)=N[C@@H](Cc1ncco1)c1nnc(C)n1-2` [I-346]: the GI50 in test [1] was < 500 nM; in test [2], > 3000 nM; in the test on VCaP cells it was < 500 nM; in the test with T47D cells, 500 to 1500 nM.
For the molecule `Cc1sc2c(c1C)C(c1ccc(CC3CC4(CCN(c5ccc(C(=O)N[C@H]6CC[C@H](Oc7ccc(C#N)c(Cl)c7)CC6)nn5)CC4)C3)nc1)=N[C@@H](Cc1ncco1)c1nnc(C)n1-2` [I-347], the concentration for 50% growth inhibition (GI50) (in test [1]; in test [2]; in the test with VCaP cells; in the test with T47D cells) was < 500 nM in each case.
For the molecule `Cc1sc2c(c1C)C(c1ccc(N3CC4(C3)CC3(CCN(c5ccc(C(=O)N[C@H]6CC[C@H](Oc7ccc(C#N)c(Cl)c7)CC6)nn5)CC3)C4)cc1)=N[C@@H](Cc1ncco1)c1nnc(C)n1-2` [I-348], the GI50 in test [1] is < 500 nM; in test [2] it was > 3000 nM; in the test on VCaP cells it was < 500 nM; in the test with T47D cells, < 500 nM.
`Cc1sc2c(c1C)C(c1ccc(O[C@H]3C[C@@]4(CCCN(c5ccc(C(=O)N[C@H]6CC[C@H](Oc7ccc(C#N)c(Cl)c7)CC6)nn5)C4)C3)cc1)=N[C@@H](C)c1nnc(C)n1-2` [I-349]: the GI50 is < 500 nM in test [1], > 3000 nM in test [2], 500 to 1500 nM with VCaP cells and 500 to 1500 nM in the test on T47D cells.
With `Cc1sc2c(c1C)C(c1ccc(O[C@H]3C[C@]4(CCCN(c5ccc(C(=O)N[C@H]6CC[C@H](Oc7ccc(C#N)c(Cl)c7)CC6)nn5)C4)C3)cc1)=N[C@@H](C)c1nnc(C)n1-2` [I-350], the 50% growth inhibitory concentration (GI50) was < 500 nM in test [1], > 3000 nM in test [2], < 500 nM in the test with VCaP cells and 500 to 1500 nM in the test with T47D cells.
Turning to `Cc1sc2c(c1C)C(c1ccc(C[C@H]3C[C@@]4(CCCN(c5ccc(C(=O)N[C@H]6CC[C@H](Oc7ccc(C#N)c(Cl)c7)CC6)nn5)C4)C3)cc1)=N[C@@H](C)c1nnc(C)n1-2` [I-351], the 50% growth inhibitory concentration (GI50) is < 500 nM in test [1], > 3000 nM in test [2], 1500 to 3000 nM in the test with VCaP cells and > 3000 nM in the test with T47D cells.
As to `Cc1sc2c(c1C)C(c1ccc(C[C@H]3C[C@]4(CCCN(c5ccc(C(=O)N[C@H]6CC[C@H](Oc7ccc(C#N)c(Cl)c7)CC6)nn5)C4)C3)cc1)=N[C@@H](C)c1nnc(C)n1-2` [I-352], the GI50 in test [1] was < 500 nM; in test [2] it was > 3000 nM; with VCaP cells it was < 500 nM; in the test on T47D cells, > 3000 nM.
With `Cc1sc2c(c1C)C(c1ccc(CO[C@H]3C[C@@]4(CCCN(c5ccc(C(=O)N[C@H]6CC[C@H](Oc7ccc(C#N)c(Cl)c7)CC6)nn5)C4)C3)cc1)=N[C@@H](C)c1nnc(C)n1-2` [I-353], the GI50 in test [1] was < 500 nM; in test [2], > 3000 nM; with VCaP cells, < 500 nM; in the test on T47D cells it was 500 to 1500 nM.
As for `Cc1sc2c(c1C)C(c1ccc([C@H]3C[C@@H](C[C@@H]4CCCN(c5ccc(C(=O)N[C@H]6CC[C@H](Oc7ccc(C#N)c(Cl)c7)CC6)nn5)C4)C3)cc1)=N[C@@H](Cc1ncco1)c1nnc(C)n1-2` [I-355], the 50% growth inhibitory concentration (GI50) is > 3000 nM in test [1], > 3000 nM in test [2], 1500 to 3000 nM in the test with VCaP cells and 1500 to 3000 nM in the test on T47D cells.
On to `Cc1sc2c(c1C)C(c1ccc([C@H]3C[C@@H](C[C@H]4CCCN(c5ccc(C(=O)N[C@H]6CC[C@H](Oc7ccc(C#N)c(Cl)c7)CC6)nn5)C4)C3)cc1)=N[C@@H](Cc1ncco1)c1nnc(C)n1-2` [I-356], for which the GI50 (in test [1]; in test [2]; in the test on VCaP cells; in the test on T47D cells) was > 3000 nM in each case.
Consider `Cc1sc2c(c1C)C(c1ccc([C@H]3C[C@H](C[C@@H]4CCCN(c5ccc(C(=O)N[C@H]6CC[C@H](Oc7ccc(C#N)c(Cl)c7)CC6)nn5)C4)C3)cc1)=N[C@@H](Cc1ncco1)c1nnc(C)n1-2` [I-357], for which the 50% growth inhibitory concentration (GI50) (in test [1]; in test [2]; in the test on VCaP cells; in the test with T47D cells) was < 500 nM each time.
On to `Cc1sc2c(c1C)C(c1ccc([C@H]3C[C@H](C[C@H]4CCCN(c5ccc(C(=O)N[C@H]6CC[C@H](Oc7ccc(C#N)c(Cl)c7)CC6)nn5)C4)C3)cc1)=N[C@@H](Cc1ncco1)c1nnc(C)n1-2` [I-358], for which the concentration for 50% growth inhibition (GI50) in test [1] was < 500 nM; in test [2], > 3000 nM; in the test with VCaP cells, < 500 nM; in the test with T47D cells it was < 500 nM.
`Cc1sc2c(c1C)C(c1ccc(C(C)(C)N3CCC4(CCCN(c5ccc(C(=O)N[C@H]6CC[C@H](Oc7ccc(C#N)c(Cl)c7)CC6)nn5)C4)C3)cc1)=N[C@@H](Cc1ncco1)c1nnc(C)n1-2` (stereo partly shown) [I-359]: the 50% growth inhibitory concentration (GI50) (in test [1]; in test [2]; in the test on VCaP cells; in the test with T47D cells) was > 3000 nM throughout.
Take `Cc1sc2c(c1C)C(c1ccc(O[C@@H]3CC[C@]4(CCCN(c5ccc(C(=O)N[C@H]6CC[C@H](Oc7ccc(C#N)c(Cl)c7)CC6)nn5)C4)C3)cn1)=N[C@@H](Cc1ncco1)c1nnc(C)n1-2` [I-360]: the concentration for 50% growth inhibition (GI50) (in test [1]; in test [2]; with VCaP cells; in the test with T47D cells) was < 500 nM each time.
Turning to `Cc1sc2c(c1C)C(c1ccc(O[C@H]3CC[C@@]4(CCCN(c5ccc(C(=O)N[C@H]6CC[C@H](Oc7ccc(C#N)c(Cl)c7)CC6)nn5)C4)C3)cn1)=N[C@@H](Cc1ncco1)c1nnc(C)n1-2` [I-361], the GI50 in test [1] was < 500 nM; in test [2], > 3000 nM; with VCaP cells, < 500 nM; in the test with T47D cells, 500 to 1500 nM.
